Reference: patent US20240150365A1 (Hotspot Therapeutics, Inc., priority 2022, published 2024)

How the values were obtained:
MALT1 = target: T1, MALT1 (Homo sapiens, UniProt Q9UDY8); experiment: MALT-1 Fluorogenic Peptide Cleavage Assay (MALT1 inhibition assay); assay type: biochemical; conditions: Avi-tagged FL MALT-1, Ac-LRSR-AMC peptide substrate, 30 min pre-incubation, 90 min reaction
T1 construct: Avi-tagged FL MALT-1 (Pharmaron, stored at −70° C.); Avi tag
T1 sequence (Q9UDY8 1-824): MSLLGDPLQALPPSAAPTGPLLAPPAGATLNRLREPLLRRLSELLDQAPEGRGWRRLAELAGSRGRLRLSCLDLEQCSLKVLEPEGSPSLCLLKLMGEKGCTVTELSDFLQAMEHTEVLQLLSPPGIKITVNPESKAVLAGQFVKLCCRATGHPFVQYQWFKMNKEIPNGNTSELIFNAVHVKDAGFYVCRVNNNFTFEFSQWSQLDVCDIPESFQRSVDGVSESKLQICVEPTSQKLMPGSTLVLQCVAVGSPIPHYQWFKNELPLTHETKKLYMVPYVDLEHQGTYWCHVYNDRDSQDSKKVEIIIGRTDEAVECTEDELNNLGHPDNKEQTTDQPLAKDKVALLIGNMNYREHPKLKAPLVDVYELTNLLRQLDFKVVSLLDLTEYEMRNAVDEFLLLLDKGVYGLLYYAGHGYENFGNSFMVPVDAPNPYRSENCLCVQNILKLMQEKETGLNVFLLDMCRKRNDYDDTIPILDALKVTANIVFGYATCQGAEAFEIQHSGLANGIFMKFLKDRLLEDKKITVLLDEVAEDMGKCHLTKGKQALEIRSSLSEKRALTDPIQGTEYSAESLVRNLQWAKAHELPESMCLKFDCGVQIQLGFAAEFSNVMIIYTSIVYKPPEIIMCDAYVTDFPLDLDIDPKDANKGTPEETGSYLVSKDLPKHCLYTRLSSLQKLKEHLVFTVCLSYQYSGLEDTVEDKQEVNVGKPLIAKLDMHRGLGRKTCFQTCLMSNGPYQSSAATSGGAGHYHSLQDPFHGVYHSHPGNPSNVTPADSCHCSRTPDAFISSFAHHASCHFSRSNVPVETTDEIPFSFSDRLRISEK
Summary of the method: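 IC50 from sigmoidal fits of % inhibition, with fluorescence (ex 342, em 441 nm) from AMC released from the quenched LRSR peptide after 90 min at room temperature. Full-length Avi-tagged MALT1 saw compound for 30 min first; final DMSO 2%.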

NF-kB = NF-kB reporter assay in Jurkat cells stimulated with aCD3/aCD28/PMA; assay type: cell-based; conditions: Homo sapiens, Jurkat, Jurkat cells, 1 hr compound incubation, aCD3/aCD28/PMA stimulation 4 hr, One-Glo readout; read-out: NF-kB Reporter Assay IC50
Summary of the method: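 Stimulation used final aCD3 5 μg/mL, aCD28 5 μg/mL and PMA 0.03 μg/mL for 4 hr at 37° C, after 1 hr compound pretreatment of 25,000 serum-starved Jurkat cells per well. One-Glo luminescence gave IC50 values.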

Structure (SMILES) | IC50 (MALT1) [nM] | IC50 (NF-kB) [nM]
[2H]C([2H])([2H])n1ncc2cnc(OC)c(NS(=O)(=O)c3ccc(-n4cc(C(F)(F)F)cn4)nc3)c21 [Example I-290, N-(6-methoxy-1-(methyl-d3)-1H-pyrazolo[4,3-c]pyridin-7-yl)-6-(4-(trifluoromethyl)-1H-pyrazol-1-yl)pyridine-3-sulfonamide] | < 400 | < 400
Cn1ncc2cccc(NS(=O)(=O)c3ccc(-c4cnn(C5COC5)c4)nc3)c21 [Example I-253, N-(1-methyl-1H-indazol-7-yl)-6-(1-(oxetan-3-yl)-1H-pyrazol-4-yl)pyridine-3-sulfonamide] | > 2500 | 400 to 1000
COc1ccc2cnn(C)c2c1NS(=O)(=O)c1ccc(-n2nc(C)c(Cl)c2C)nc1 [Example I-141, 6-(4-Chloro-3,5-Dimethyl-1H-Pyrazol-1-yl)-N-(6-Methoxy-1-Methyl-1H-Indazol-7-yl)Pyridine-3-Sulfonamide] | < 400 | < 400
Cc1nn(-c2ccc(S(=O)(=O)Nc3cccc4cnn(C)c34)cn2)c(C)c1C [Example I-59, N-(1-Methyl-1H-Indazol-7-yl)-6-(3,4,5-Trimethyl-1H-Pyrazol-1-yl)Pyridine-3-Sulfonamide] | > 2500 | < 400
COc1ncc2cnn(C)c2c1NS(=O)(=O)c1ccc(-n2nc(C(F)(F)F)c3c2CCOC3)nc1 [Example I-300, N-(6-methoxy-1-methyl-1H-pyrazolo[4,3-c]pyridin-7-yl)-6-(3-(trifluoromethyl)-6,7-dihydropyrano[4,3-c]pyrazol-1(4H)-yl)pyridine-3-sulfonamide] | < 400 | 400 to 1000
O=S(=O)(c1ccc(-n2cc(C(F)(F)F)cn2)nc1)N1CCCCn2ncc3cccc1c32 [Example I-293, 1-((6-(4-(trifluoromethyl)-1H-pyrazol-1-yl)pyridin-3-yl)sulfonyl)-2,3,4,5-tetrahydro-1H-[1,4]diazocino[3,2,1-hi]indazole] | > 2500 | 400 to 1000
CCOC(=O)c1cnn(-c2ccc(S(=O)(=O)Nc3c(OC)ccc4cnn(C)c34)cn2)c1C [Example I-238, ethyl 1-{5-[(6-methoxy-1-methylindazol-7-yl)sulfamoyl]pyridin-2-yl}-5-methylpyrazole-4-carboxylate] | < 400 | < 400
COc1ccc2cnn(C)c2c1NS(=O)(=O)c1ccc(-n2nc(C)c(C)c2C)nc1 [Example I-140, N-(6-Methoxy-1-Methyl-1H-Indazol-7-yl)-6-(3,4,5-Trimethyl-1H-Pyrazol-1-yl)Pyridine-3-Sulfonamide] | < 400 | < 400
COc1cc(NS(=O)(=O)c2ccc(-n3cc(C(F)(F)F)cn3)nc2)c2c(cnn2C)c1 [Example I-72, N-(5-Methoxy-1-Methylindazol-7-yl)-6-[4-(Trifluoromethyl)Pyrazol-1-Yl]Pyridine-3-Sulfonamide] | 1000 to 2500 | < 400
COc1ccc2[nH]cc(C)c2c1NS(=O)(=O)c1ccc(-n2cc(C(F)(F)F)cn2)nc1 [Example I-174, N-(5-methoxy-3-methyl-1H-indol-4-yl)-6-(4-(trifluoromethyl)-1H-pyrazol-1-yl)pyridine-3-sulfonamide] | < 400 | < 400
COc1ncc2cnn(C)c2c1NS(=O)(=O)c1ccc(-c2cc(C3CC3)n[nH]2)nc1 [Example I-205, 6-(3-Cyclopropyl-1H-Pyrazol-5-yl)-N-(6-Methoxy-1-Methyl-1H-Pyrazolo[4,3-C]Pyridin-7-yl)Pyridine-3-Sulfonamide] | 1000 to 2500 | 1000 to 2500
COc1ccc2cnn(C)c2c1NS(=O)(=O)c1ccc(-n2cc(C)c(C)n2)nc1 [Example I-129, 6-(3,4-dimethyl-1H-pyrazol-1-yl)-N-(6-methoxy-1-methyl-1H-indazol-7-yl)pyridine-3-sulfonamide] | < 400 | < 400
